Target: CK2A1 (CK2α/β) (Homo sapiens, UniProt P68400)
Experiment: CK2 kinase assay, CK2A1 (CK2α/β)
Assay type: biochemical
Details: Table A; read-out: CK2A1 (CK2α/β) (IC50)

CK2A1 (CK2α/β), sequence (P68400 whole entry, species assumed): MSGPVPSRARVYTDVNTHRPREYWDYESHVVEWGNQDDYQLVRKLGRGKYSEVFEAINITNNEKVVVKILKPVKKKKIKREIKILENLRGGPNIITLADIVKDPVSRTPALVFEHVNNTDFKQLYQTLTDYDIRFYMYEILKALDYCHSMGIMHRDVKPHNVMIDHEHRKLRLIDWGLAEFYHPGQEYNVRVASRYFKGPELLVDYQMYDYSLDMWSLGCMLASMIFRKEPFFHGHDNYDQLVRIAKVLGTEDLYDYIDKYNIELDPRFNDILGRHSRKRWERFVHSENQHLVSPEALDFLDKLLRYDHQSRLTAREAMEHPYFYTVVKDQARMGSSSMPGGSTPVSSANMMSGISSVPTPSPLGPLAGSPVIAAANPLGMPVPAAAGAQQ
CK2A1 (CK2α/β), sequence (P67870 whole entry partner, species assumed): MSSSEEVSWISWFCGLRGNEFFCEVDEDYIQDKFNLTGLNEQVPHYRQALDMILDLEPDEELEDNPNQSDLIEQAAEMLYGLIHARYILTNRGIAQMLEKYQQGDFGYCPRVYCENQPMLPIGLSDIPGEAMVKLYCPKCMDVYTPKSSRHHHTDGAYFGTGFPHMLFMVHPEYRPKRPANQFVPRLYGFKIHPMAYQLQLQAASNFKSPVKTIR

Row | SMILES | IC50
1 | C[C@H]1CC(CN2CCN(c3cc(C#N)cc(Nc4nc(NC5CC5)c5ncc(C#N)n5n4)c3Cl)CC2)O1 (stereo partly drawn) [Example 529, 2-((2-chloro-5-cyano-3-(4-(((4S)-4-methyloxetan-2-yl)methyl)piperazin-1-yl)phenyl)amino)-4-(cyclopropylamino)imidazo[2,1-f][1,2,4]triazine-7-carbonitrile] | 1.33 nM
2 | N#Cc1cc(Nc2nc(NC3CC3)c3ncc(C#N)n3n2)c(Cl)c(N2CC[C@@H](N)C2)c1 [Example 46, (R)-2-(3-(3-aminopyrrrolidin-1-yl)-2-chloro-5-cyanophenylamino)-4-(cyclopropylamino)imidazo [1,2-f][1,2,4]triazine-7-carbonitrile] | 1.31 nM
3 | N#Cc1cc(Nc2nc(NC3CC3)c3ncc(C#N)n3n2)c(Cl)c(N2CCN(C3CN(S(=O)(=O)C4CC4)C3)CC2)c1 [Example 504, 2-[(2-chloro-5-cyano-3-{4-[1-(cyclopropanesulfonyl)azetidin-3-yl]piperazin-1-yl}phenyl)amino]-4-(cyclopropylamino)imidazo[2,1-f][1,2,4]triazine-7-carbonitrile] | 4.07 nM
4 | N#Cc1cc(Nc2nc(NC3CC3)c3ncc(C#N)n3n2)c(Cl)c(OCC2CNCCO2)c1 (stereo not drawn) [Example 441, 2-((2-chloro-5-cyano-3-(morpholin-2-ylmethoxy)phenyl)amino)-4-(cyclopropylamino)imidazo[2,1-f][1,2,4]triazine-7-carbonitrile] | 1.17 nM
5 | CN1CCC2CCN(c3cc(C#N)cc(Nc4nc(NC5CC5)c5ncc(C#N)n5n4)c3Cl)CC21 (racemic) [Example 456] | 2.9 nM
6 | C=C(C)/C=C/CN1CCN(c2cc(C#N)cc(Nc3nc(NC4CC4)c4ncc(C#N)n4n3)c2Cl)CC1 [Example 530, (E)-2-((2-chloro-5-cyano-3-(4-(4-methylpenta-2,4-dien-1-yl)piperazin-1-yl)phenyl)amino)-4-(cyclopropylamino)imidazo[2,1-f][1,2,4]triazine-7-carbonitrile] | 6.24 nM
7 | N#Cc1cc(Nc2nc(NC3CC3)c3ncc(C#N)n3n2)c(Cl)c(N2CCN(C3CN(C(=O)CN4CCOCC4)C3)CC2)c1 [Example 493, 2-{[2-chloro-5-cyano-3-(4-{1-[2-(morpholin-4-yl)acetyl]azetidin-3-yl}piperazin-1-yl)phenyl]amino}-4-(cyclopropylamino)imidazo[2,1-f][1,2,4]triazine-7-carbonitrile] | 2.03 nM
8 | CC(O)CN1CCC2CN(c3cc(C#N)cc(Nc4nc(NC5CC5)c5ncc(C#N)n5n4)c3Cl)CCC21 (racemic) [Example 447, (+/−)-2-((2-chloro-5-cyano-3-(1-(2-hydroxypropyl)hexahydro-1H-pyrrolo[3,2-c]pyridin-5(6H)-yl)phenyl)amino)-4-(cyclopropylamino)imidazo[2,1-f][1,2,4]triazine-7-carbonitrile] | 0.89 nM
9 | CC(=O)N1CC(N2CCN(c3cc(OC(F)F)cc(Nc4nc(NC5CC5)c5ncc(C#N)n5n4)c3Cl)CC2)C1 [Example 559, 2-((3-(4-(1-acetylazetidin-3-yl)piperazin-1-yl)-2-chloro-5-(difluoromethoxy)phenyl)amino)-4-(cyclopropylamino)imidazo[2,1-f][1,2,4]triazine-7-carbonitrile] | 2.37 nM
10 | N#Cc1cc(Nc2nc(NC3CC3)c3ncc(C#N)n3n2)c(Cl)c(N2C[C@@H]3CCCN(C4COC4)[C@@H]3C2)c1 [Example 778, 2-((2-chloro-5-cyano-3-((4aS,7aS)-1-(oxetan-3-yl)hexahydro-1H-pyrrolo[3,4-b]pyridin-6(2H)-yl)phenyl)amino)-4-(cyclopropylamino)imidazo[2,1-f][1,2,4]triazine-7-carbonitrile] | 1.09 nM
11 | CC(=O)N1CCC2(CC1)CN(c1cc(C#N)cc(Nc3nc(NC4CC4)c4ncc(C#N)n4n3)c1Cl)C2 [Example 806, 2-((3-(7-acetyl-2,7-diazaspiro[3.5]nonan-2-yl)-2-chloro-5-cyanophenyl)amino)-4-(cyclopropylamino)imidazo[2,1-f][1,2,4]triazine-7-carbonitrile] | 0.84 nM
12 | CC(=O)N1CC(N2CCN(c3cc(C#N)cc(Nc4nc(NC5CC5)c5ncc(C#N)n5n4)c3Cl)C(=O)C2)C1 [Example 633, 2-((3-(4-(1-acetylazetidin-3-yl)-2-oxopiperazin-1-yl)-2-chloro-5-cyanophenyl)amino)-4-(cyclopropylamino)imidazo[2,1-f][1,2,4]triazine-7-carbonitrile] | 1.2 nM
13 | N#Cc1cc2c(c(Nc3nc(NC4CC4)c4ncc(C#N)n4n3)c1)NCCOCC(=O)N2 [Example 632, 11-((7-cyano-4-(cyclopropylamino)imidazo[2,1-f][1,2,4]triazin-2-yl)amino)-6-oxo-1,2,3,5,6,7-hexahydrobenzo[e][1,4,7]oxadiazonine-9-carbonitrile] | 1.45 nM
14 | CCNc1nc(Nc2cc(C#N)cc(N3CC[C@@H](NC(=O)OC)[C@H](OC(=O)[C@H](C)OP(=O)(O)O)C3)c2Cl)nn2c(C#N)cnc12 [Example 340, (S)-(3R,4R)-1-(2-chloro-5-cyano-3-((7-cyano-4-(ethylamino)imidazo[2,1-f][1,2,4]triazin-2-yl)amino)phenyl)-4-((methoxycarbonyl)amino)piperidin-3-yl 2-(phosphonooxy)propanoate] | 6 nM
15 | CCNc1nc(Nc2cc(C#N)cc(N3CC[C@@H](NC(=O)OC)[C@H](OC(=O)[C@H](C)O)C3)c2Cl)nn2c(C#N)cnc12 [Example 341, (S)-(3R,4R)-1-(2-chloro-5-cyano-3-((7-cyano-4-(ethylamino)imidazo[2,1-f][1,2,4]triazin-2-yl)amino)phenyl)-4-((methoxycarbonyl)amino)piperidin-3-yl 2-hydroxypropanoate] | 1 nM
16 | COC(=O)N[C@H]1CN(c2cc(C#N)cc(Nc3nc(NC4CC4)c4ncc(C#N)n4n3)c2Cl)C[C@H]1CF [Example 287, methyl ((3R,4R)-1-(2-chloro-5-cyano-3-((7-cyano-4-(cyclopropylamino)imidazo[2,1-f][1,2,4]triazin-2-yl)amino)phenyl)-4-(fluoromethyl)-3-pyrrolidinyl)carbamate] | 1.17 nM

The next compounds have a lower IC50 than those just listed; values first:

Row | IC50 | SMILES
17 | 0.41 nM | N#Cc1cc(Nc2nc(NC3CC3)c3ncc(C#N)n3n2)c(Cl)c(N2CCN(C(=O)C(F)F)CC2)c1 [Example 75, 2-(2-chloro-5-cyano-3-(4-(2,2-difluoroacetyl)piperazin-1-yl)phenylamino)-4-(cyclopropylamino) imidazo[1,2-f][1,2,4] triazine-7-carbonitrile]
18 | 0.43 nM | N#Cc1cc(Nc2nc(NC3CC3)c3ncc(C#N)n3n2)c(Cl)c(N2CCN(C(=O)OCC3(CO)COC3)CC2)c1 [Example 533, (3-(hydroxymethyl)oxetan-3-yl)methyl 4-(2-chloro-5-cyano-3-((7-cyano-4-(cyclopropylamino)imidazo[2,1-f][1,2,4]triazin-2-yl)amino)phenyl)piperazine-1-carboxylate]
19 | 0.58 nM | N#Cc1cc(Nc2nc(NC3CC3)c3ncc(C#N)n3n2)c(Cl)c(N2CCC(NC3COC3)CC2)c1 [Example 110, 2-((2-chloro-5-cyano-3-(4-(3-oxetanylamino)-1-piperidinyl)phenyl)amino)-4-(cyclopropylamino)imidazo [2,1-f][1,2,4]triazine-7-carbonitrile]
20 | 0.66 nM | CS(=O)(=O)N1CC(N2CCC(c3cc(C#N)cc(Nc4nc(NC5CC5)c5ncc(C#N)n5n4)c3Cl)CC2)C1 [Example 321, 2-((2-chloro-5-cyano-3-(1-(1-(methylsulfonyl)azetidin-3-yl)piperidin-4-yl)phenyl)amino)-4-(cyclopropylamino)imidazo[2,1-f][1,2,4]triazine-7-carbonitrile]
21 | 0.35 nM | COC(=O)N1CC(N2CCC(c3cc(C#N)cc(Nc4nc(NC5CC5)c5ncc(C#N)n5n4)c3Cl)CC2)C1 [Example 320, methyl 3-(4-(2-chloro-5-cyano-3-((7-cyano-4-(cyclopropylamino)imidazo[2,1-f][1,2,4]triazin-2-yl)amino)phenyl)piperidin-1-yl)azetidine-1-carboxy]
22 | 0.18 nM | N#Cc1cc(NCCO)c(Cl)c(Nc2nc(NC3CC3)c3ncc(C#N)n3n2)c1 [Example 615, 2-((2-chloro-5-cyano-3-((2-hydroxyethyl)amino)phenyl)amino)-4-(cyclopropylamino)imidazo[2,1-f][1,2,4]triazine-7-carbonitrile]
23 | 0.59 nM | CN1CCN(C2CN(c3cc(C#N)cc(Nc4nc(NC5CC5)c5ncc(C#N)n5n4)c3Cl)C2)CC1 [Example 151, 2-((2-chloro-5-cyano-3-(3-(4-methylpiperazin-1-yl)azetidin-1-yl)phenyl)amino)-4-(cyclopropylamino)imidazo[2,1-f][1,2,4]triazine-7-carbonitrile]
24 | 0.8 nM | COC(=O)N[C@@H]1CCN(c2cc(C#N)cc(Nc3nc(NC4CC4)c4ncc(C#N)n4n3)c2Cl)C[C@H]1OC(=O)CN1CCOCC1 [Example 196, (3R,4R)-1-(2-chloro-5-cyano-3-((7-cyano-4-(cyclopropylamino)imidazo[2,1-f][1,2,4]triazin-2-yl)amino)phenyl)-4-((methoxycarbonyl)amino)-3-piperidinyl 4-morpholinylacetate]
25 | 0.32 nM | N#Cc1cc(Nc2nc(NC3CC3)c3ncc(C#N)n3n2)c(Cl)c(N2CCN(C(=O)Cc3nnn[nH]3)CC2)c1 [Example 99, 2-((2-chloro-5-cyano-3-(4-(1H-tetrazol-5-ylacetyl)-1-piperazinyl)phenyl)amino)-4-(cyclopropylamino) imidazo[2,1-f][1,2,4] triazine-7-carbonitrile]
26 | 0.78 nM | CC(C)(O)CN1CC(N2CCC(c3cc(C#N)cc(Nc4nc(NC5CC5)c5ncc(C#N)n5n4)c3Cl)CC2)C1 [Example 324, 2-((2-chloro-5-cyano-3-(1-(1-(2-hydroxy-2-methylpropyl)-3-azetidinyl)-4-piperidinyl)phenyl)amino)-4-(cyclopropylamino)imidazo [2,1-f][1,2,4]triazine-7-carbonitrile]
27 | 0.77 nM | CCNc1nc(Nc2cc(C#N)cc(N3CC(N4CCN(C)CC4)C3)c2F)nn2c(C#N)cnc12 [Example 383, 2-((5-cyano-2-fluoro-3-(3-(4-methylpiperazin-1-yl)azetidin-1-yl)phenyl)amino)-4-(ethylamino)imidazo[2,1-f][1,2,4]triazine-7-carbonitrile]

Reference: US9273057B2 (Bristol-Myers Squibb Company, priority 2012, dated 2016)
